Source: patent EP0347733A1, “Optically active hydantoin derivatives” (Eisai Co., Ltd., priority 1988, dated 1989)

Tests used:
[1] = test system: myocardial contraction; test: influence on myocardial contraction; conditions: amount several times as much as the antiarrhythmically effective amount
Source text: One of the pharmacological features of the compounds of the present invention is that they inhibit myocardial contraction only very slightly. This is a quite desirable property when they are used as the antiarrhythmic agents.

[2] = test system: aconitine-induced arrhythmia; test: aconitine-induced arrhythmia model of mice; type: in vivo; conditions: orally administered one hour before intraperitoneal injection of 0.1 mg/kg of aconitine, tachycardia and frequency of ventricular extrasystole from the electrocardiogram, 60 min
Description: The antiarrythmic activity of the compound of the present invention was examined with aconitine-induced arrhythmia model of mice. When 0.1 mg/kg of aconitine is intraperitoneally injected, usually ventricular tachycardia occurs within 20 minutes. The compound of the present invention (d- or ℓ-compound) was orally administered one hour before the intraperitoneal injection of 0.1 mg/kg of aconitine and the tachycardia and the frequency of ventricular extrasystole were determined from the electrocardiogram to determine the antiarrhythmic activity (ED₅₀). The ED₅₀ of the d-compound was 40 mg/kg and that of the ℓ-compound was 5 mg/kg.

[3] = test system: mice; test: acute toxicity tests with mice; type: in vivo
Description: In the acute toxicity tests with mice, LD₅₀ of the d-compound was 700 mg/kg and that of the ℓ-compound was 200 mg/kg.

SMILES | influence on the myocardial contraction [1] | antiarrhythmic activity (ED₅₀) [2] [mg/kg] | LD₅₀ [3] [mg/kg]
CC(C)N(CCC(C(N)=O)(c1ccccc1)c1ccccn1)C(C)C (stereo not drawn) [disopyramide] | reduce myocardial contraction | – | –
CC1(C)CC2(NC(=O)N(CCCN3CCC(O)CC3)C2=O)c2cc(Cl)ccc2O1 (single isomer, unassigned) [d-compound, d-6-Chloro-2,2-dimethyl-1′-[3-(4-hydroxypiperidino)propyl]spiro[chroman-4,4′-imidazolidine]-2′,5′-dione] | – | 40 | 700
CC1(C)CC2(NC(=O)N(CCCN3CCC(O)CC3)C2=O)c2cc(Cl)ccc2O1 (single isomer, unassigned) [ℓ-compound, ℓ-6-Chloro-2,2-dimethyl-1′-[3-(4-hydroxypiperidino)propyl]spiro[chroman-4,4′-imidazolidine]-2′,5′-dione] | – | 5 | 200
C=C[C@H]1C[N@@]2CC[C@H]1C[C@@H]2[C@@H](O)c1ccnc2ccc(OC)cc12 [quinidine] | reduce myocardial contraction | – | –
